Source: EP4417607A1, “HETEROCYCLIC COMPOUND AS SOS1 INHIBITOR AND USES THEREOF” (Nanjing Zaiming Pharmaceutical Co., Ltd., priority 2021, dated 2023)

Assay: Plasma protein binding rate by equilibrium dialysis
Assay type: in vitro ADME
Conditions: CD-1 mouse plasma, 1 µM compound, 6 h dialysis at 37 °C
Method: • 1. CD-1 mouse plasma (BioIVT) • 2. 96-well equilibrium dialysis plate (HTDialysis LLC, Gales Ferry, CT, HTD96B) and equilibrium dialysis membrane (MWCO 12-14K, #1101) • 3. Positive control compound warfarin • 4. ABI QTrap 5500 liquid chromatography-mass spectrometry system
• 1. Preparation of a buffer with a concentration of 100 mM sodium phosphate and 150 mM NaCl: an alkaline solution with a concentration of 14.2 g/L Na2HPO4 and 8.77 g/L NaCl was prepared with ultrapure water, and an acidic solution with a concentration of 12.0 g/L NaH2PO4 and 8.77 g/L NaCl was prepared with ultrapure water. The alkaline solution was titrated with the acidic solution until the pH was 7.4 to prepare a buffer with a concentration of 100 mM sodium phosphate and 150 mM NaCl. • 2. Preparation of a dialysis membrane: the dialysis membrane was soaked in ultrapure water for 60 min to separate the membrane into two pieces, then soaked with 20% ethanol for 20 min, and finally soaked with dialysis buffer for 20 min. • 3. Preparation of plasma: the frozen plasma was quickly thawed at room temperature and then centrifuged at 3,220 g at 4 °C for 10 min to remove clots, and the supernatant was collected to a new centrifuge tube. The pH of the plasma was measured and recorded. The plasma with pH 7-8 was used. • 4. Preparation of a plasma sample containing the compound: A 10 mM stock solution of the compound or the positive control compound was diluted with DMSO to give a 200 µM working solution. 3 µL of 200 µM of the compound working solution was added to 597 µL of mouse plasma to give a plasma sample with a final concentration of 1 µM. • 5. Equilibrium dialysis procedures: a dialysis device was assembled according to the instructions. […]
The peak areas of the compound on the buffer side and the plasma side were measured. The plasma protein binding rate of the compound was calculated by the following formula: [formula] %Binding rate = 1−%Free rate [formula]
All data were calculated by Microsoft Excel software. […]

SMILES	%Binding rate
[2H]C([2H])([2H])Oc1c(=O)n(C2(CF)CC2)cc2c(N[C@H](C)c3cccc(C(F)F)c3F)nc(C)nc12 [Example 23, (R)-4-((1-(3-(difluoromethyl)-2-fluorophenyl)ethyl)amino)-6-(1-(fluoromethyl)cyclopropyl)-8-(methoxy-d3)-2-methylpyrido[4,3-d]pyrimidine-7(6H)-one]	91.3%
Cc1nc(N[C@H](C)c2cccc(C(F)F)c2F)c2cn(C3(CF)CC3)c(=O)c(N3CCOC[C@@H]3C)c2n1 [Example 40, 4-(((R)-1-(3-(difluoromethyl)-2-fluorophenyl)ethyl)amino)-6-(1-(fluoromethyl)cyclopropyl)-2-methyl-8-((S)-3-methylmorpholine)pyrido[4,3-d]pyrimidine-7(6H)-one]	92.9%
[2H][C@](C)(Nc1nc(C)nc2c(N3CCOCC3)c(=O)n(C3(CF)CC3)cc12)c1cccc(C(F)F)c1F [Example 55, (R)-4-((1-(3-(difluoromethyl)-2-fluorophenyl)ethyl-1-d)amino)-6-(1-(fluoromethyl)cyclopropyl)-2-methyl-8-morpholinylpyrido[4,3-d]pyrimidine-7(6H)-one]	95.7%
